In PubChem BioAssay (NCI):
Values joined by “and” are separate entries in the source; they are usually repeats but may differ in a detail not shown here. Identical values can stand only once.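 96-well plates; 48 h exposure; 5 concentrations. Endpoints by linear interpolation between flanking doses. Not reached: highest tested concentration assigned. GI50 marks 50% less growth. TGI denotes the concentration required for complete inhibition of growth.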

Tests used:
Assay in all cases: NCI-60 cell line screen, 48 h
[1] = test system: NCI-H226 lung
[2] = test system: BT-549 breast
[3] = test system: UO-31 renal
[4] = test system: U251 CNS
[5] = test system: NCI-H460 lung
[6] = test system: ACHN renal
[7] = test system: SR leukemia
[8] = test system: NCI-H522 lung
[9] = test system: SK-MEL-5 melanoma
[10] = test system: MDA-MB-231 breast

With `CCNC(=O)/C(=C/c1ccc(OC)cc1)c1cc(OC)c(OC)c(OC)c1` the TGI [1] was 88.7 µM, the TGI [2] was greater than 100 µM and the TGI [3] was greater than 100 µM. The TGI [4] was 70 µM, the TGI [5] was 57 µM and the TGI [6] was greater than 100 µM. The TGI [7] was greater than 100 µM, the TGI [8] was 20.8 µM and the TGI [9] was greater than 53.9 µM. For the same compound, the TGI [10] was greater than 86.1 µM.

`COC(=O)C1=COC(C)C2CN3CCc4c([nH]c5ccccc45)C3CC12` (centres undefined) was tested, and the TGI [1] was 29.4 µM and > 100 µM, the GI50 [2] was 28 µM and > 100 µM and the TGI [2] was greater than 100 µM. The GI50 [3] was 20.8 µM and > 100 µM, the TGI [3] was greater than 100 µM and the GI50 [4] was 24.6 µM and > 100 µM. For the same compound, the TGI [4] was 81.4 µM and > 100 µM, the GI50 [5] was 24 µM and > 100 µM and the TGI [5] was 58.8 µM and > 100 µM. For the same compound, the GI50 [6] was 32.1 µM and > 100 µM, the TGI [6] was greater than 100 µM and the GI50 [7] was 12.6 µM and 27.8 µM. The TGI [7] was 39.2 µM and > 100 µM, the GI50 [8] was 23.1 µM and 91.2 µM and the TGI [8] was 78.5 µM and > 100 µM. The GI50 [9] was 22.6 µM and > 100 µM, the TGI [9] was 66.4 µM and > 100 µM and the GI50 [10] was 21.2 µM and > 100 µM. The TGI [10] was 65.3 µM and > 100 µM.

Compound `O=C(Nc1cc(Cl)ccc1O)c1ccc(Nc2ccnc(C(F)(F)F)c2)cc1` has a GI50 [1] of 2.02 µM, a TGI [1] of 7.33 µM and a GI50 [2] of 2.21 µM. It also gave a TGI [2] of 6.88 µM, a GI50 [3] of 1.93 µM and a TGI [3] of 6.13 µM. For the same compound, the GI50 [4] was 3.47 µM, the TGI [4] was greater than 100 µM and the GI50 [5] was 2.49 µM. For the same compound, the TGI [5] was 6.91 µM, the GI50 [6] was 2.35 µM and the TGI [6] was 7.42 µM. The GI50 [7] was 2.52 µM, the TGI [7] was 9.84 µM and the GI50 [9] was 2.19 µM. For the same compound, the TGI [9] was 4.95 µM, the GI50 [10] was 2.11 µM and the TGI [10] was 6.35 µM.

`O=C1c2ccccc2-c2c1c1ccccc1c(=O)n2CCN1CCNCC1` was tested, and the GI50 [1] was 1.06 µM, the TGI [1] was 3.15 µM and the GI50 [2] was 4.96 µM. For the same compound, the TGI [2] was 17.8 µM, the GI50 [3] was 2.24 µM and the TGI [3] was 13 µM. It also gave a GI50 [4] of 1.08 µM, a TGI [4] of 3.66 µM and a GI50 [5] of 0.668 µM. For the same compound, the TGI [5] was greater than 100 µM, the GI50 [6] was 0.316 µM and the TGI [6] was 1.3 µM. It also gave a GI50 [8] of 3.06 µM, a TGI [8] of 19.3 µM and a GI50 [10] of 2.45 µM. For the same compound, the TGI [10] was 10.7 µM.

With `CC1(C)CN=C(NN=C(/C=C/c2ccc(C(F)(F)F)cc2)/C=C/c2ccc(C(F)(F)F)cc2)NC1` the GI50 [1] was 1.51 µM, the TGI [1] was 3.27 µM and the GI50 [2] was 1.74 µM. The TGI [2] was 3.46 µM, the GI50 [3] was 1.52 µM and the TGI [3] was 2.94 µM. It also gave a GI50 [4] of 1.2 µM, a TGI [4] of 2.47 µM and a GI50 [5] of 1.47 µM. It also gave a TGI [5] of 3.2 µM, a GI50 [6] of 1.19 µM and a TGI [6] of 2.48 µM. It also gave a GI50 [8] of 1.25 µM, a TGI [8] of 2.57 µM and a GI50 [9] of 1.6 µM. It also gave a TGI [9] of 3.11 µM, a GI50 [10] of 0.477 µM and a TGI [10] of 1.91 µM.

With `CO[C@H]1Nc2c(ccc(C)c2O)C(=O)N2C=C(/C=C/C(N)=O)C[C@@H]12` the TGI [1] was 0.47 µM, the TGI [2] was less than 0.0479 µM and the TGI [3] was 0.0451 µM. For the same compound, the TGI [4] was 10.8 µM, the TGI [5] was 31.1 µM and the TGI [7] was greater than 100 µM. It also gave a TGI [8] of 0.182 µM, a TGI [9] of 0.0308 µM and a TGI [10] of 0.0333 µM.

Work on `COc1ccc(-c2nc(-c3cc(OC)cc(OC)c3)[nH]c2-c2ccc(OC)cc2)cc1` yielded a GI50 [1] of 5.47 µM, a TGI [1] greater than 100 µM and a GI50 [2] of 8.56 µM. It also gave a TGI [2] greater than 100 µM, a GI50 [3] of 5.72 µM and a TGI [3] greater than 100 µM. It also gave a GI50 [5] of 5.98 µM, a TGI [5] greater than 100 µM and a GI50 [6] of 5.56 µM. It also gave a TGI [6] greater than 100 µM, a GI50 [7] of 2.43 µM and a TGI [7] of 8.74 µM. For the same compound, the GI50 [8] was 3.42 µM, the TGI [8] was 59.3 µM and the GI50 [9] was 1.85 µM. For the same compound, the TGI [9] was 3.7 µM, the GI50 [10] was 6.82 µM and the TGI [10] was greater than 100 µM.

In the case of `CCCC/C(=C\C1=C(C)C(=O)C(OC)=C(OC)C1=O)C(=O)O`, the GI50 [2] is reported as greater than 100 µM, the TGI [2] is reported as greater than 100 µM and the GI50 [3] is reported as greater than 100 µM. The TGI [3] was greater than 100 µM, the GI50 [4] was greater than 100 µM and the TGI [4] was greater than 100 µM. It also gave a GI50 [5] greater than 100 µM, a TGI [5] greater than 100 µM and a GI50 [6] greater than 100 µM. For the same compound, the TGI [6] was greater than 100 µM, the GI50 [8] was greater than 100 µM and the TGI [8] was greater than 100 µM. The GI50 [9] was greater than 100 µM, the TGI [9] was greater than 100 µM and the GI50 [10] was 33.9 µM. The TGI [10] was greater than 100 µM.

`CCCC(=O)C1=C(O)C(Cc2c(O)c(C)c(O)c(C(=O)CCC)c2O)=C(O)C(C)(C)C1=O` gave a TGI [2] greater than 50 µM, a TGI [3] greater than 50 µM and a TGI [4] greater than 50 µM. It also gave a TGI [5] of 43.1 µM, a TGI [6] greater than 50 µM and a TGI [7] of 40.3 µM. The TGI [9] was greater than 50 µM and the TGI [10] was greater than 50 µM.

`COc1ccc(C(=O)c2cc(OC)c(OC)c(OC)c2)cc1OC` was tested, and the TGI [2] was greater than 100 µM, the TGI [3] was 39.4 µM and the TGI [4] was greater than 100 µM. It also gave a TGI [5] greater than 100 µM, a TGI [6] greater than 100 µM and a TGI [7] greater than 100 µM. For the same compound, the TGI [8] was 12.3 µM, the TGI [9] was greater than 100 µM and the TGI [10] was greater than 100 µM.

`CCCc1cc(=O)n2c(C(=O)Nc3ccc(Cl)cc3C)c(C(=O)Nc3ccc(F)cc3)sc2n1` showed a GI50 [2] of 27.7 µM, a TGI [2] of 61 µM and a GI50 [3] of 7.35 µM. For the same compound, the TGI [3] was 30.4 µM, the GI50 [4] was 1.51 µM and the TGI [4] was 4.37 µM. It also gave a GI50 [5] of 20.8 µM, a TGI [5] greater than 150 µM and a GI50 [6] of 3.8 µM. The TGI [6] was 13.4 µM, the GI50 [7] was 0.943 µM and the TGI [7] was 3.75 µM. It also gave a GI50 [8] of 9.18 µM, a TGI [8] of 67.5 µM and a GI50 [9] of 27.1 µM. It also gave a TGI [9] greater than 150 µM, a GI50 [10] of 0.698 µM and a TGI [10] of 3.08 µM.
